In the NIST ThermoML archive (doi:10.1021/je7006549):
Numbers after ± are expanded uncertainties.

What was measured:
[1] = 101 kPa, Liquid
[2] = mn = molality of the nth substance listed, in mol/kg; details: 101 kPa, Liquid

CCc1ccccc1 [ethylbenzene]
[1]
Details | mass density [kg/m3] | viscosity [mPa·s]
303.15 K | 858 ± 0.7 | 0.5986 ± 0.0095
308.15 K | 853.5 ± 0.7 | 0.5691 ± 0.0093
313.15 K | 849.5 ± 0.8 | 0.5372 ± 0.009
318.15 K | 844.7 ± 0.8 | 0.506 ± 0.0088
323.15 K | 840.5 ± 0.8 | 0.4805 ± 0.0086
328.15 K | 835.9 ± 0.8 | 0.4566 ± 0.0085
333.15 K | 831.6 ± 0.9 | 0.4371 ± 0.0083

Cc1cccc(C)c1 [1,3-dimethylbenzene]
[1]
Details | mass density [kg/m3] | viscosity [mPa·s]
303.15 K | 855.6 ± 0.7 | 0.549 ± 0.0092
308.15 K | 851.1 ± 0.8 | 0.5201 ± 0.009
313.15 K | 846.9 ± 0.8 | 0.4967 ± 0.0088
318.15 K | 842.4 ± 0.8 | 0.4817 ± 0.0087
323.15 K | 838.3 ± 0.8 | 0.444 ± 0.0085
328.15 K | 833.7 ± 0.9 | 0.435 ± 0.0084
333.15 K | 829.6 ± 0.9 | 0.413 ± 0.0082

Cc1ccccc1C [1,2-dimethylbenzene]
[1]
Details | mass density [kg/m3] | viscosity [mPa·s]
303.15 K | 872.1 ± 0.7 | 0.7404 ± 0.011
308.15 K | 867.7 ± 0.8 | 0.69 ± 0.01
313.15 K | 864 ± 0.8 | 0.6451 ± 0.0099
318.15 K | 859.7 ± 0.8 | 0.6117 ± 0.0096
323.15 K | 855.5 ± 0.8 | 0.5711 ± 0.0093
328.15 K | 851.2 ± 0.8 | 0.5433 ± 0.0091
333.15 K | 847.1 ± 0.9 | 0.5105 ± 0.0088

c1ccccc1 [benzene] + CC1=CC(=O)c2ccccc2C1=O
[2], m2 = 0
Details | mass density [kg/m3] | viscosity [mPa·s]
303.15 K | 868 ± 0.7 | 0.564 ± 0.0093
308.15 K | 862.2 ± 0.8 | 0.5232 ± 0.009
313.15 K | 857 ± 0.8 | 0.5001 ± 0.0088
318.15 K | 851.6 ± 0.8 | 0.4714 ± 0.0086
323.15 K | 846.3 ± 0.8 | 0.4397 ± 0.0084
328.15 K | 840.7 ± 0.9 | 0.4145 ± 0.0082
333.15 K | 835.4 ± 0.9 | 0.3932 ± 0.0081

Cc1ccc(C)cc1 [1,4-dimethylbenzene]
[1]
Details | mass density [kg/m3] | viscosity [mPa·s]
303.15 K | 852 ± 0.7 | 0.5726 ± 0.0093
308.15 K | 847.7 ± 0.7 | 0.5374 ± 0.009
313.15 K | 843.2 ± 0.8 | 0.5178 ± 0.0089
318.15 K | 838.7 ± 0.8 | 0.4882 ± 0.0087
323.15 K | 834.5 ± 0.8 | 0.4595 ± 0.0085
328.15 K | 829.9 ± 0.8 | 0.4439 ± 0.0084
333.15 K | 825.6 ± 0.9 | 0.4189 ± 0.0082

CCc1ccccc1 [ethylbenzene] + CC1=CC(=O)c2ccccc2C1=O
[2], m2 = 0
Details | mass density [kg/m3] | viscosity [mPa·s]
303.15 K | 858 ± 0.7 | 0.5986 ± 0.0095
308.15 K | 853.5 ± 0.7 | 0.5691 ± 0.0093
313.15 K | 849.5 ± 0.8 | 0.5372 ± 0.009
318.15 K | 844.7 ± 0.8 | 0.506 ± 0.0088
323.15 K | 840.5 ± 0.8 | 0.4805 ± 0.0086
328.15 K | 835.9 ± 0.8 | 0.4566 ± 0.0085
333.15 K | 831.6 ± 0.9 | 0.4371 ± 0.0083

CC1=CC(=O)c2ccccc2C1=O [2-methyl-1,4-naphthalenedione] + Cc1cccc(C)c1
[2]
Details | mass density [kg/m3] | viscosity [mPa·s]
303.15 K, m1 = 0.0452 | 857.6 ± 0.7 | 0.5673 ± 0.0094
303.15 K, m1 = 0.0902 | 859.6 ± 0.7 | 0.5771 ± 0.0095
303.15 K, m1 = 0.1352 | 861.6 ± 0.8 | 0.5802 ± 0.0095
303.15 K, m1 = 0.1802 | 863.6 ± 0.8 | 0.5844 ± 0.0095
303.15 K, m1 = 0.2254 | 865.6 ± 0.8 | 0.5902 ± 0.0096
303.15 K, m1 = 0.272 | 867.7 ± 0.8 | 0.6031 ± 0.0097
308.15 K, m1 = 0.0452 | 853.1 ± 0.8 | 0.5351 ± 0.0091
308.15 K, m1 = 0.0902 | 855.1 ± 0.8 | 0.5422 ± 0.0092
308.15 K, m1 = 0.1352 | 857.1 ± 0.8 | 0.5467 ± 0.0092
308.15 K, m1 = 0.1802 | 859.1 ± 0.8 | 0.5523 ± 0.0093
308.15 K, m1 = 0.2254 | 861.1 ± 0.8 | 0.5566 ± 0.0093
308.15 K, m1 = 0.272 | 863.2 ± 0.8 | 0.5654 ± 0.0094
313.15 K, m1 = 0.0452 | 848.9 ± 0.8 | 0.5098 ± 0.0089
313.15 K, m1 = 0.0902 | 850.9 ± 0.8 | 0.5144 ± 0.009
313.15 K, m1 = 0.1352 | 852.9 ± 0.8 | 0.5188 ± 0.009
313.15 K, m1 = 0.1802 | 854.9 ± 0.8 | 0.5237 ± 0.009
313.15 K, m1 = 0.2254 | 856.9 ± 0.8 | 0.5284 ± 0.0091
313.15 K, m1 = 0.272 | 859 ± 0.8 | 0.5352 ± 0.0091
318.15 K, m1 = 0.0452 | 844.4 ± 0.8 | 0.4864 ± 0.0088
318.15 K, m1 = 0.0902 | 846.4 ± 0.8 | 0.4931 ± 0.0088
318.15 K, m1 = 0.1352 | 848.4 ± 0.8 | 0.4977 ± 0.0088
318.15 K, m1 = 0.1802 | 850.4 ± 0.8 | 0.5013 ± 0.0089
318.15 K, m1 = 0.2254 | 852.4 ± 0.8 | 0.505 ± 0.0089
318.15 K, m1 = 0.272 | 854.5 ± 0.8 | 0.5117 ± 0.0089
323.15 K, m1 = 0.0452 | 840.3 ± 0.8 | 0.4593 ± 0.0086
323.15 K, m1 = 0.0902 | 842.3 ± 0.8 | 0.4642 ± 0.0086
323.15 K, m1 = 0.1352 | 844.3 ± 0.8 | 0.4669 ± 0.0086
323.15 K, m1 = 0.1802 | 846.3 ± 0.8 | 0.4711 ± 0.0086
323.15 K, m1 = 0.2254 | 848.3 ± 0.8 | 0.4753 ± 0.0087
323.15 K, m1 = 0.272 | 850.4 ± 0.8 | 0.4817 ± 0.0087
328.15 K, m1 = 0.0452 | 835.7 ± 0.9 | 0.4381 ± 0.0084
328.15 K, m1 = 0.0902 | 837.7 ± 0.9 | 0.4432 ± 0.0084
328.15 K, m1 = 0.1352 | 839.7 ± 0.9 | 0.4456 ± 0.0085
328.15 K, m1 = 0.1802 | 841.7 ± 0.9 | 0.4497 ± 0.0085
328.15 K, m1 = 0.2254 | 843.7 ± 0.9 | 0.4539 ± 0.0085
328.15 K, m1 = 0.272 | 845.8 ± 0.9 | 0.463 ± 0.0086
333.15 K, m1 = 0.0452 | 831.6 ± 0.9 | 0.4148 ± 0.0082
333.15 K, m1 = 0.0902 | 833.6 ± 0.9 | 0.4198 ± 0.0083
333.15 K, m1 = 0.1352 | 835.6 ± 0.9 | 0.4242 ± 0.0083
333.15 K, m1 = 0.1802 | 837.6 ± 0.9 | 0.4269 ± 0.0083
333.15 K, m1 = 0.2254 | 839.6 ± 0.9 | 0.429 ± 0.0083
333.15 K, m1 = 0.272 | 841.7 ± 0.9 | 0.4342 ± 0.0084

Cc1ccc(C)cc1 [1,4-dimethylbenzene] + CC1=CC(=O)c2ccccc2C1=O
[2], m2 = 0
Details | mass density [kg/m3] | viscosity [mPa·s]
303.15 K | 852 ± 0.7 | 0.5726 ± 0.0093
308.15 K | 847.7 ± 0.7 | 0.5374 ± 0.009
313.15 K | 843.2 ± 0.8 | 0.5178 ± 0.0089
318.15 K | 838.7 ± 0.8 | 0.4882 ± 0.0087
323.15 K | 834.5 ± 0.8 | 0.4595 ± 0.0085
328.15 K | 829.9 ± 0.8 | 0.4439 ± 0.0084
333.15 K | 825.6 ± 0.9 | 0.4189 ± 0.0082

Cc1ccccc1 [toluene]
[1]
Details | mass density [kg/m3] | viscosity [mPa·s]
303.15 K | 857.5 ± 0.7 | 0.5253 ± 0.009
308.15 K | 852.9 ± 0.8 | 0.4933 ± 0.0088
313.15 K | 847.9 ± 0.8 | 0.4717 ± 0.0086
318.15 K | 843.5 ± 0.8 | 0.4491 ± 0.0085
323.15 K | 838.7 ± 0.8 | 0.4244 ± 0.0083
328.15 K | 834 ± 0.9 | 0.4082 ± 0.0082
333.15 K | 829.1 ± 0.9 | 0.3835 ± 0.008

c1ccccc1 [benzene]
[1]
Details | mass density [kg/m3] | viscosity [mPa·s]
303.15 K | 868 ± 0.7 | 0.564 ± 0.0093
308.15 K | 862.2 ± 0.8 | 0.5232 ± 0.009
313.15 K | 857 ± 0.8 | 0.5001 ± 0.0088
318.15 K | 851.6 ± 0.8 | 0.4714 ± 0.0086
323.15 K | 846.3 ± 0.8 | 0.4397 ± 0.0084
328.15 K | 840.7 ± 0.9 | 0.4145 ± 0.0082
333.15 K | 835.4 ± 0.9 | 0.3932 ± 0.0081

Cc1ccccc1 [toluene] + CC1=CC(=O)c2ccccc2C1=O
[2], m2 = 0
Details | mass density [kg/m3] | viscosity [mPa·s]
303.15 K | 857.5 ± 0.7 | 0.5253 ± 0.009
308.15 K | 852.9 ± 0.8 | 0.4933 ± 0.0088
313.15 K | 847.9 ± 0.8 | 0.4717 ± 0.0086
318.15 K | 843.5 ± 0.8 | 0.4491 ± 0.0085
323.15 K | 838.7 ± 0.8 | 0.4244 ± 0.0083
328.15 K | 834 ± 0.9 | 0.4082 ± 0.0082
333.15 K | 829.1 ± 0.9 | 0.3835 ± 0.008
